Measured values reported in patent US20060252706A1, “Composition for slimming” (priority 2003, published 2006).

Tests used:
[1] = tested on: skin of a New Zealand white rabbit; assay: Skin irritation (Draize Primary Irritation Index)
Method: Skin irritations caused by theanine, caffeine, genistein, L-carnitine and catechin were measured observing edema and erythema on the skin of a New Zealand white rabbit.
Vehicle, 10% of theanine, caffeine, genistein, L-carnitine, catechin or mixture thereof were applied on the skin of a New Zealand white rabbit, twice a day for 4 days, total 8 times. After application, total skin irritation index was calculated by summing up the scores of erythema and edema. The skin irritation index was calculated according to Draize's skin Primary Irritation Index (P.I.I.) (Draize, J. H., Appraisal of the safety of chemical in foods, drugs and cosmetics).

[2] = tested on: 3T3-L1 cells; assay: Accumulation of neutral fat in fat cells (GPO-trinder, absorption at 540 nm); type: cell-based, rat; conditions: 3T3-L1 cells treated during cell differentiation; compared with control; FIG. 4
Method: (§1) 3T3-L1 cell, fibroblast cell line of […], was inoculated in 6 well culture plate with 1×10^5cells/well and cultured in DMEM (Dulbecos modified eagles medium, GIBCO BRL, Life Technologes) containing 10% of fetal bovine serum (FBS). After 2 days of culture, culture medium was changed with a new DMEM (containing 10% FBS), and cultured further 2 days. Then the culture cell was deposited in a new DMEM (containing 10% FBS) containing 1 μg/ml of insulin, 0.5 mM of IBMX and 0.25 μM of dexamethasone to induce differentiation, after 2 days, the culture medium was changed with a new DMEM containing insulin, and cultured for 5 days. After 5 days of culture, the culture medium was changed with a normal DMEM (containing 10% FBS), and observed until cells changed to fat cells (adipocytes).
3T3-L1 fat cells differentiated in the Reference Example 2 were washed with PBS (phosphate buffered saline) three times, and harvested with extraction buffer (20 mM of Tris, 1 mM of EDTA and 1 mM of 2-mercaptoethanol). The harvested cells passed G26 needle 6 times on an ice base, centrifuged at 15000×g, 4° C. for 3 minutes and the supernatant was gathered to obtain cell extracts. […]
Neutral fats in the cell extracts obtained same as Experimental Example 3 underwent chromphoric reaction using GPO-trinder kit purchased from Sigma (St. Louis, Mo., U.S.A.), and absorption was measured at 540 nm using ELISA reader.

[3] = tested on: 3T3-L1 fat cells; assay: Cell toxicity of theanine at high concentration; type: cell-based, mouse
[4] = tested on: 3T3-L1 fat cells; assay: Decomposition of fat: glycerol isolated into culture medium from 3T3-L1 fat cells; type: cell-based, rat; conditions: FIG. 1
Method: as §1
The degree of the decomposition of fat was observed by measuring the concentration of glycerol isolated into the culture medium from fat cell. Measurement of the quantity of the glycerol was performed with chromphoric reaction method using GPO-trinder kit purchased from Sigma (St. Louis, Mo., U.S.A.), and absorption was measured in 540 nm using ELISA reader, then the result of each component was calculated based on the data of the control settled to be 100%. […]

[5] = tested on: β3-adrenergic receptor; assay: Expression of β3-adrenergic receptor by RT-PCR in 3T3-L1 fat cells; type: cell-based, rat; conditions: 0.005%, 24 hours, FIG. 2
Method: as §1
In order to clarify the mechanism of acceleration of decomposition of neutral fat by the theanine, 3T3-L1 fat cells differentiated in the Reference Example 2 were used. The cells were treated with 0.005% of theanine purchased from KuridaKogyo (Japan) (more than 97%) and comparative materials (caffeine, control), and 24 hours later, RNAs were extracted from the cells and performed RT-PCR. The RT-PCR kit was purchased from TaKaRa, and primer of β3 -adrenergic receptor was purchased from Bioneer.

[6] = New Zealand white, rabbit, in vivo, 4 days
[7] = New Zealand white rabbit, compared with control

| SMILES | Primary Irritation Index (0˜4) [1, 6] | skin irritation ([1]; rabbit, in vivo) | amount of neutral fat [2] | cell toxicity [3] | concentration of glycerol isolated into the culture medium from fat cell ([4]; compared with the control (100%)) | effect of decomposition of fat compared with caffeine (positive comparative control) ([4]; same concentration of caffeine) | expression of β3-adrenergic receptor [5] | Primary Irritation Index (0˜4) ([1]; 10% solution on rabbit skin, twice a day for 4 days, total 8 times) | skin irritation [1, 7] |
| --- | --- | --- | --- | --- | --- | --- | --- | --- | --- |
| CCNC(=O)CC[C@H](N)C(=O)O [theanine] | 0.8 | do not cause skin irritation | decreased | does not cause cell toxicity | increased | more excellent effect of decomposition of fat than that of caffeine | increases | – | – |
| O=c1c(-c2ccc(O)cc2)coc2cc(O)cc(O)c12 [genistein] | – | – | – | – | – | – | – | 0.8 | do not cause skin irritation |
| C[N+](C)(C)C[C@H](O)CC(=O)[O-] [L-carnitine] | 0.7 | do not cause skin irritation | – | – | – | – | – | – | – |
| Cn1c(=O)c2c(ncn2C)n(C)c1=O [caffeine, reference compound] | 0.7 | – | – | – | – | – | – | – | do not cause skin irritation |
